{"source": "patent US7001607B1", "about": "“Artificial tear replacement solution” (Bausch & Lomb Incorporated, priority 1999, dated 2006)"}
{"test": "surface tension of components", "format": "physicochemical", "units": {"surface tension σ": "mNm"}}
{"compound": "perfluoroalkylethanol oxethylate", "surface tension σ": 19}
{"compound": "Fc1c(F)c(F)c2c(c1F)c(F)c(F)c1c(F)c(F)c(F)c(F)c12", "note": "[perfluorophenanthrene]", "surface tension σ": 19}
{"compound": "CC[N+]1(CC)CC[N+](CC)(CC)CC1.O=C([O-])C(F)(F)C(F)(F)C(F)(F)C(F)(F)C(F)(F)C(F)(F)C(F)(F)F.O=C([O-])C(F)(F)C(F)(F)C(F)(F)C(F)(F)C(F)(F)C(F)(F)C(F)(F)F", "note": "[tetraethylpiperazinium salt of perfluorooctanoic acid]", "surface tension σ": 15.9}
